pIC50: −log10 of the molar value.

The experiment deals with Eukaryotic elongation factor 2 kinase (mouse). As to the kind of experiment: Inhibition of eEF2K in mouse HT-22 cells preincubated for 20 mins followed by [33P]-ATP addition measured after 120 mins by radiometric Hotspot kinase assay.

As for `C=C(c1[nH]c2ccccc2c1CN1C/C(=C/C)[C@@H]2CC(=O)c3[nH]c4ccccc4c3C[C@H]1C2C(=O)OC)[C@H]1CCN(C)C/C1=C\C` (stereo partly specified), the negative-log IC50 (pIC50) is 3.87.

In general, pIC50 refers to the IC50 on a negative log10 scale, so that one unit is a factor of ten. Read a high pIC50 as a low IC50.

Values taken from BindingDB's records for PubMed 40104800 (Jinan University).
